How the values were obtained:
p53 wild-type (+/+) MEFs = test: Cell viability of p53+/+ mouse embryonic fibroblasts; assay type: cell-based
Description: (§1) Cell culture and luciferase assay.
Functional p53 enhances triptolide-induced cell death.

p21 = p21 protein level by immunoblotting (Example 5); assay type: cell-based, human; conditions: for effect on p21 expression: p53 mutant HT29 colon cancer cell line
Method: (§2) Immunoblotting. Cells were harvested at the conditions and times indicated and lysed using HNET buffer (50 mM HEPES, pH 7.5, 100 mM NaCl, 1 mM EGTA, and 1% Triton X-100) supplemented with 1 mM dithiothreitol, 1 mM phenylmethylsulfonyl fluoride, and protease inhibitors mixture (Roche Molecular Biochemicals). 100 μg of protein was loaded on 10% SDS-PAGE followed by transferring to polyvinylidene difluoride membrane. Immunoblotting was performed as described previously using a p53 mouse monoclonal antibody from Oncogene Research Products. […] Immunoblot analysis using other antibodies was performed as described above. The band intensity was measured by NIH Image 1.62.

[1] = test system: p53-binding site in the mdm2 promoter; test: mdm2 promoter-luciferase reporter (pBP100-GL2) in MCF-7 cells; assay type: cell-based, human
Description: Reagents. PG490 (triptolide, MW 360) was obtained from Pharmagenesis (Palo Alto, Calif.). A549 (non-small cell lung cancer) and HT1080 (fibrosarcoma) cell lines were from ATCC. MCF-7 (breast cancer) cell line was obtained from Dr. Ron Weigel (Stanford University). Mouse embryonic fibroblasts (p53+/+ and p53−/−) cell lines were provided by Dr. Amato J. Giaccia (Stanford University). […] The mdm2 promoter-luciferase construct pBP100-GL2 was provided by Dr.
Louis Noumovski (Stanford University) and was made by cloning the Bgl II-Hind III fragment from the pBP100CAT vector into the pGL2-Basic Vector (Promega, Madison, Wis.). MCF-7 cells were transfected using lipofectamine Plus reagent from the Life Technologies, Inc. Cells were collected and lysates were prepared according to the manufacturer's protocol for luciferase assay (Promega Corp., Madison, Wis.). Antibodies for p53, p21^WAF1/CIP1, Mdm2, Protein phosphatase-1 (PP-1), and Erk-2 were from Calbiochem, Inc (La Jolla, Calif.) and the rabbit polyclonal Bax antibody was from Upstate Biotechnology (Lake Placid, N.Y.).
as §1
In the experiments shown in FIG. 5, RT-PCR was performed using 2 μg of total RNAs extracted from MCF-7 cells. […] GADPH was used as a loading control. […]

p53 [2] = test: p53 protein level by immunoblotting (Example 2); assay type: cell-based, human; conditions: for increase in p53 protein: MCF-7 cells
Method: (§3) Immunoblotting. At 8 hours after triptolide and/or doxorubicin treatment cells were harvested at the times indicated and lysed using HNET buffer (50 mM HEPES pH 7.5, 100 mM NaCl, 1 mM EGTA, and 1% Triton X-100) supplemented with 1 mM DTT, 1 mM PMSF and protease inhibitors cocktail (Boehringer Mannheim, Germany). 35 μg of protein was loaded on 10% SDS-PAGE followed by transferring to PVDF membrane. Immunoblotting was performed as previously described using a p53 mouse monoclonal antibody from Oncogene Research Products (Lee et al. (1999) J Biol Chem 274:13451-5).

[3] = test system: A549 (non-small cell lung cancer) cells; test: Cell viability by MTT assay, A549 cells; conditions: for Percent survival: MTT after 48 h
Method: (§4) Cell culture and luciferase assay. A549 (non-small cell lung cancer), HT-1080 (fibrosarcoma), and MCF-7 (breast cancer) cells were cultured in the appropriate media with 10% FCS supplemented with L-glutamine, penicillin, and streptomycin. p53 wild-type (+/+) and null (−/−) Mouse Embryonic Fibroblasts (MEFs) transfected with the E1A/Ras were grown in DMEM containing 15% FCS supplemented with L-glutamine, penicillin, and streptomycin. Transfections were done on MCF-7 cells using the lipofectamine Plus reagent. At 24 hours after transfection, MCF-7 cells were left untreated or treated with triptolide (20 ng/ml) or doxorubicin (100 nM) for 4, 8, and 16 hours and cells were collected for luciferase assay. Luciferase activity was measured in samples with equal protein concentration with a Luminometer (Analytical Luminescence Laboratory, San Diego, Calif.).
(§5) Cell viability assay. Cell viability was measured by an 3-(4,5-dimethylthiazol-2-yl)-2,5-diphenyltetrazolium bromide (MTT) assay as described above. Untreated or cells treated with triptolide and/or doxorubicin were harvested at the indicated times followed by the addition of MTT to the cells in a 96-well plate. Cells were solubilized with […] acidified with 0.1N HCl. The 96-plate was read at a wavelength of 590 nm on an iEMS Labsystems plate reader.

Mdm2 = Mdm2 mRNA (RT-PCR) and protein (immunoblot) in MCF-7 cells; assay type: cell-based, human
Method: RT-PCR. RNA was prepared from MCF-7 cells using Rneasy Mini Kit from Qiagen Inc. (Valencia, Calif.). cDNAs were prepared using M-MLV reverse transcriptase (Gibco) with 2 μg of total RNA. 1/20 of total cDNA was used in limited (25 cycles) PCR reactions using Taq polymerase (Gibco). The following primer pairs were used: p53 [SEQ ID NO:1] 5′-[…]-3′ and 5′-[SEQ ID NO:2] TCTTCUTXGGCTGGGGAGAG-3′, mdm2, [SEQ ID NO:3] 5′-[…]-3′ and [SEQ ID NO:4] 5′-[…]-3′, p21, [SEQ ID NO:5] 5′-[…]-3′ and [SEQ ID NO:6] 5′-[…]-3′, and glyceraldehyde-3-phosphate dehydrogenase (GAPDH)- [SEQ ID NO:7] 5′-[…]-3′ and [SEQ ID NO:8] 5′-[…]-3′.
as §3
In the experiments shown in FIG. 5, RT-PCR was performed using 2 μg of total RNAs extracted from MCF-7 cells. […] GADPH was used as a loading control. The plasmid pBP100-GL2 which contains a p53-binding site in the mdm2 promoter was transiently transfected into MCF-7 cells, and cellular lysates were used for the luciferase assay.

p53 [4] = test: p53 protein level by immunoblotting (Example 5); assay type: cell-based, human
Method: as §2

[5] = test system: HT-1080 (fibrosarcoma) cells; test: Cell viability by MTT assay, HT-1080 cells; conditions: for Percent survival: MTT after 48 h
Method: as §4, §5

[6] = Mus musculus, Fibroblast, read-out: reduction of cell viability
[7] = A549, Triptolide 5 ng/ml, Doxorubicin 100 nM, alone or combined
[8] = HT-1080, Triptolide 5 ng/ml, Doxorubicin 100 nM, alone or combined

SMILES: CC(C)[C@]12O[C@H]1[C@@H]1O[C@]13[C@]1(O[C@H]1C[C@H]1C4=C(CC[C@@]13C)C(=O)OC4)[C@@H]2O [PG490, triptolide]
- cytotoxicity at 0.005 µg/mL (p53 wild-type (+/+) MEFs; [6]): 48%
- cytotoxicity at 0.01 µg/mL (p53 wild-type (+/+) MEFs; [6]): 73%
- reduction of basal p21 levels (p21; HT1080, triptolide 20 ng/ml): 50%
- effect on CPT-11-mediated induction of p21 (p21; HT1080 and A549 cells): inhibits
- effect on p21 expression (p21): did not affect
- reduction of doxorubicin-mediated induction of p53 (p21; triptolide 5 ng/ml): 58%
- effect on doxorubicin-induced increase in p21 (p21; triptolide 20 ng/ml): completely blocked
- decrease of transactivation of the reporter construct ([1]; MCF-7, triptolide 20 ng/ml): approximately 30%
- increase in p53 steady state protein levels (p53 [2]; MCF-7 and A549 cells, dose- and time-dependent): 2-4 fold
- increase in p53 protein (p53 [2]): greater than 4 fold
- Percent survival [3, 7]: 91.1 ± 3.8%
- Percent survival ([3]; A549, Triptolide 20 ng/ml alone or with Doxorubicin 100 nM): 64.0 ± 8.2%
- effect on cell death induced by carboplatinum ([3]; A549 cells): enhances cell death
- change in levels of the Mdm2 protein (Mdm2; MCF-7, triptolide 5 ng/ml, 8 or 24 hours): no significant change
- increase in Mdm2 protein (Mdm2; MCF-7, triptolide 20 ng/ml, 8 h): approximately 1.5 fold
- Mdm2 protein (Mdm2; MCF-7, triptolide 20 ng/ml, 24 h): almost a complete loss
- mdm2 mRNA (Mdm2; cells treated with triptolide): time-dependent decrease
- increase in p53 (p53 [4]; HT1080, triptolide 5 ng/ml): 2.4 fold
- increase in p53 steady-state protein levels (p53 [4]; HT1080, triptolide 20 ng/ml, 9 h): 4 fold
- Percent survival [5, 8]: 90.4 ± 6.2%
- Percent survival ([5]; HT-1080, Triptolide 20 ng/ml alone or with Doxorubicin 100 nM): 26.0 ± 5.2%
- cytotoxicity at 0.02 µg/mL ([5]; Homo sapiens, HT-1080, read-out: decrease in cell viability): 74%

SMILES: COc1cccc2c1C(=O)c1c(O)c3c(c(O)c1C2=O)C[C@@](O)(C(=O)CO)C[C@@H]3O[C@H]1C[C@H](N)[C@H](O)[C@H](C)O1 [doxorubicin, reference compound]
- more cell death in MEF cells with wild-type p53 than in those without functional p53 (p53 wild-type (+/+) MEFs): 35%
- increase in p21 (p21; HT1080, doxorubicin): 14.5 fold
- effect on p21 expression (p21): did not affect
- increase of transactivation of the Mdm2 reporter ([1]; MCF-7, doxorubicin 100 nM, by 16 h): 15%
- increase in p53 protein (p53 [2]): 2 fold
- Percent survival [3, 7]: 85.7 ± 9.6%
- cytotoxicity at 0.1 µM ([3]; Homo sapiens, A549, 48 h, read-out: decrease in cell viability, A549, triptolide 20 ng/ml, doxorubicin 100 nM, alone or combined, 48 hours): 14.3%
- increase in the Mdm2 mRNA and protein (Mdm2; MCF-7 cells, doxorubicin 100 nM): 1.5-2 fold
- increase in p53 protein (p53 [4]; HT1080, doxorubicin alone or plus triptolide): 4.9 fold
- Percent survival [5, 8]: 93.6 ± 4.3%
- cytotoxicity at 0.1 µM ([5]; Homo sapiens, HT-1080, 48 h, read-out: decrease in cell viability, HT-1080, triptolide 5 ng/ml (13.5 nM), doxorubicin 100 nM, alone or combined, 48 hours): 6.4%
